This note sets out measurements from patent publication US9949976B2, “Kinase inhibitor and use thereof” (Sihuan Pharmaceutical Holdings Group Ltd., priority 2013, dated 2018).

Molecules are shown by their SMILES. Where two headings read alike, the source gives them in different places.

One series deals with CDK6/D3 (Homo sapiens, UniProt Q00534). The series can be described thus: In vitro enzyme-inhibiting activity, Caliper Mobility Shift method. The series is classed as biochemical. The settings on record: read-out: CDK enzyme-inhibiting activity IC50 CDK6/D3.
The target of another series is CDK4/D3 (Homo sapiens, UniProt P11802). The series is described as above. The format is biochemical. Particulars: read-out: CDK enzyme-inhibiting activity IC50 CDK4/D3.
Series [1] deals with U87MG human glioblastoma cell. Kind of series: BrdU cell proliferation assay (Cell Signaling kit). The series is classed as cell-based. Particulars: U-87 MG, 72 h, read-out: In vitro cell-inhibiting activity IC50 U87MG. Here is the method: (§1) Experimental method: cell proliferation assay was carried out by BrdU method (BrdU cell proliferation assay kit, Cell Signaling Technology Company).
(§2) Preparation of gradient dilution solutions of test compound: the stock solution containing 10 mM test compound was subjected to 4-fold stepwise dilution with DMSO to prepare solutions containing 2.5 mM, 625 μM, 156 μM, 39 μM, 9.8 μM, and 2.5 μM test compound, respectively. 2 μL DMSO-diluted compound was added to 198 μL culture medium containing 10% FBS to prepare […] test compound, wherein the maximum concentration of the test compound was 100 μM, the concentration of DMSO was 1%, and there were 7 concentration gradients.
U87MG medium: MEM+10% FBS
(§3) (1) Cells grown to 80% confluence (in exponential growth phase) were digested with pancreatin, and centrifuged to collect the cells. MDA-MB-435S and U87MG cells were re-suspended in FBS-free culture medium, counted, and seeded to a 96-well plate; MDA-MB-435S cells were seeded at 3000 cells/well/81 μL; U87MG cells were seeded at 4000 cells/well/81 MCF-7 cells were resuspended in culture medium containing 1% FBS, and counted and seeded to a 96-well plate, at 4000 cell/well/82 μL. The plates were placed in a cell incubator at 37° C. […]
(§4) (9) To each well, stop solution (100 μL) was added, and OD value at 450 nm was measured by ELISA instrument […]

Series [2] has as its system MDA-MB-435S human melanoma cell. Kind of series: BrdU cell proliferation assay (Cell Signaling kit). The series is classed as cell-based. Particulars: 72 h, read-out: In vitro cell-inhibiting activity IC50 MDA-MB-435S. Here is the method: as §1, §2
MDA-MB-435S medium: L-15+10% FBS+0.01 mg/mL insulin
as §3, §4

The subject of series [3] is MCF-7 human breast cancer cell. The series can be described thus: BrdU cell proliferation assay (Cell Signaling kit). The format is cell-based. Particulars: MCF7, 72 h, read-out: In vitro cell-inhibiting activity IC50 MCF-7. Here is the method: as §1, §2
MCF-7 medium: DMEM+10% FBS+0.01 mg/mL insulin
as §3, §4

The nature of series [4]: Pharmacokinetics in nude mouse (IV and PO). The series is classed as in vivo. Particulars: female, BALB/c nude, plasma; for bioavailability: read-out: F (absolute bioavailability). The protocol:
Test animal: female nude mouse (BALB/c); control agent: 3 mice/administration route at each time point, weight: 22-25 g/mouse; Compound 1: 3 mice/administration route at each time point, weight: 22-25 g/mouse; Compound 6-1: 6 mice/administration route/test compound, weight: 18-26 g/mouse.
Control agent/Compound 1, IV administration group: before administration, 0.083, 0.25, 0.5, 1, 2, 4, 6, 8, 24, and 30 h after administration; PO administration group (10 mg/kg): before administration, 0.167, 0.5, 1, 2, 4, 6, 8, 24, and 30 h after administration.
Compound 1, PO administration group (100 mg/kg): 0.167, 0.5, 1, 2, 4, 6, 8, 24, 30, and 48 h after administration.
Compound 6-1, IV administration group (2.5 mg/kg) and PO administration group (10 mg/kg): 0.083, 0.25, 0.5, 1, 2, 4, 6, 8 and 24 h after administration; Compound 6-1, PO administration group (100 mg/kg): 0.083, 0.25, 0.5, 1, 2, 4, 6, 8, 24, 30, 48 h after administration.
Control agent/Compound 1: 300 μL whole blood was collected from intraocular canthus at each time point, and was centrifuged at 8000 r/min for 6 min in a high speed centrifuge to separate the plasma; the plasma was stored in a refrigerator at −80° C. Compound 6-1: 60 μL whole blood was collected from intraocular canthus at each time point, and was placed in an anticoagulation tube containing anticoagulant agent K2EDTA; the blood sample was centrifuged at 8000 r/min for 6 min to obtain a plasma sample.
The plasma samples of control agent and compound 1 were analyzed by precipitation of protein: to 50 μL plasma, 200 μL internal standard (acetonitrile solution containing 500 ng/mL Warfarin) was added; the resultant mixture was vortexed for 3 min at 1500 r/min, and centrifuged for 5 min at 13000 r/min; to 100 μL supernatant, 400 μL water was added; the resultant mixture was mixed homogeneously under vortexing and analyzed by LC-MS/MS.
The plasma sample of compound 6-1 was analyzed by precipitation of protein: to a suitable amount of plasma, a given volume of internal standard solution was added; the resultant mixture was vortexed and centrifuged; the supernatant was diluted by adding a given volume of water; the resultant mixture was mixed homogeneously under vortexing and analyzed by LC-MS/MS.

Sequence of CDK4/D3 (P11802 whole entry): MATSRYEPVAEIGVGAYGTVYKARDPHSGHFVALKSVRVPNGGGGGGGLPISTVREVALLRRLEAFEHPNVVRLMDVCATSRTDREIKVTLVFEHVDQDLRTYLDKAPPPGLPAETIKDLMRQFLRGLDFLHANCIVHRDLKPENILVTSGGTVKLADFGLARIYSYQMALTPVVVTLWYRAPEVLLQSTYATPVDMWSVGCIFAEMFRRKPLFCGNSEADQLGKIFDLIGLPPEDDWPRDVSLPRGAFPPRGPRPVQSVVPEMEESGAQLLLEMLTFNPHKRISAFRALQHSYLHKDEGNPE
Sequence of CDK4/D3 (P30281 whole entry partner): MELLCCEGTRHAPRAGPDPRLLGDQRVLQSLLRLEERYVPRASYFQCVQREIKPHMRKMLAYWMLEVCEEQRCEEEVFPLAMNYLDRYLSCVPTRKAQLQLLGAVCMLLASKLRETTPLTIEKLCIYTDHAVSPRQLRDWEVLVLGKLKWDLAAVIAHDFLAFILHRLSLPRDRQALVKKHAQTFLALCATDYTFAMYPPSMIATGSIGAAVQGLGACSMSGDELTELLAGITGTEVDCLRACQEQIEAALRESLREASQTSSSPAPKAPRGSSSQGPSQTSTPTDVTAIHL
Sequence of CDK6/D3 (Q00534 whole entry): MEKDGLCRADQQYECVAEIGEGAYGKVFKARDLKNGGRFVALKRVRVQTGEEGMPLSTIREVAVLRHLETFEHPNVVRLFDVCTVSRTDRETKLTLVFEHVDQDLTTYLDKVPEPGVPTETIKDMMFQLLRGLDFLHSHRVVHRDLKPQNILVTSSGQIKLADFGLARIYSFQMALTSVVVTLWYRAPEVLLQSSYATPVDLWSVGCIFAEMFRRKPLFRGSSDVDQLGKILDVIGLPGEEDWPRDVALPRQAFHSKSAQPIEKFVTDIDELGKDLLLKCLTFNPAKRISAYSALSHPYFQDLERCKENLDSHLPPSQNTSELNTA
Sequence of CDK6/D3 (P30281 whole entry partner): as the sequence (P30281 whole entry partner) above
Experimental for CDK4/D3: (§5) Measurement of activity for inhibiting CDK4/6 kinase by Caliper Mobility Shift method.
1) Preparation of 1-Fold Buffer for CDK4 Kinase 800 μL stock solution containing 1000 mM HEPES (pH 7.5), and 40 μL stock solution containing 10% Triton X-100, were added to 39160 μL ultra pure water, and the resultant mixture was mixed homogeneously.
(§6) 25 mL stock solution containing 4% Coating Reagent #3 (provided with the 12-sipper chip used in Caliper device), 50 mL stock solution containing 1000 mM HEPES (pH 7.5), 50 mL stock solution containing 0.5 M EDTA, and 0.25 mL stock solution containing 30% Brij-35, were added to 374.75 mL ultra pure water, and the resultant mixture was mixed homogeneously.
7 μL CDK4/D3 enzyme solution, and 9 μL stock solution containing 1M DTT were added to 1784 μL 1-fold CDK4 kinase buffer, and the resultant mixture was mixed homogeneously.
10 μL stock solution containing 100 mM ATP, 45 μL stock solution containing 1M MgCl2, and 45 μL FAM-tagged polypeptide 8, were added to 1700 μL 1-fold CDK4 kinase buffer, and the resultant mixture was mixed homogeneously.
(§7) DMSO solution containing 10 mM test compound was diluted with DMSO to a solution containing 50 μM test compound (which was used as a stock solution).
(§8) 1) 5 μL 5-fold test compound solution and 10 μL 2.5-fold kinase solution were added to the corresponding wells in a 384-well plate, and incubated at room temperature for 10 min.
(§9) 2) To the corresponding wells, 10 μL 2.5-fold polypeptide solution was added to start the enzymatic reaction, and incubation was performed at 28° C. for 5 h.
(§10) To the corresponding wells, 25 μL stop solution was added to stop the reaction.
(§11) The data was read by Caliper device, the inhibition rate was calculated by the following formula, and curve fitting was carried out by GraphPad5.0 software to get IC50 value. Inhibition rate=(maximal value−sample value)/(maximal value−minimal value)×100, wherein, maximal value: positive control without addition of test compound; minimal value: negative control without addition of enzyme.
Experimental for CDK6/D3: as §5
50 mL stock solution containing 1000 mM HEPES (pH 7.5), and 50 μL stock solution containing 30% Brij-35, were added to 949.95 mL ultra pure water, and the resultant mixture was mixed homogeneously.
as §6
18 μL CDK6/D3 enzyme solution, and 14 μL stock solution containing 1M DTT were added to 2768 μL 1-fold CDK6 kinase buffer, and the resultant mixture was mixed homogeneously.
23 μL stock solution containing 100 mM ATP, 75 μL stock solution containing 1M MgCl2, and 75 μL FAM-tagged polypeptide 8, were added to 2827 μL 1-fold CDK6 kinase buffer, and the resultant mixture was mixed homogeneously.
as §7, §8, §9, §10, §11

For `CCN1CC2CCC(C1)N2Cc1cnc(Nc2cc(-c3cc(F)c4nc(C)n(C(C)C)c4c3)c(F)cn2)nc1` [Compound 13, 5-((3-ethyl-3,8-diazabicyclo[3.2.1]octan-8-yl)methyl)-N-(5-fluoro-4-(4-fluoro-1-isopropyl-2-methyl-1H-benzo[d]imidazol-6-yl)pyridin-2-yl)pyrimidin-2-amine], the IC50 came out at 31.3 nM at CDK6/D3 and 3 nM on CDK4/D3.
For the compound `CCN1C2CCC1CN(Cc1cnc(Nc3cc(-c4cc(F)c5nc(C)n(C(C)C)c5c4)c(F)cn3)nc1)C2` [Compound 14, 5-((8-ethyl-3,8-diazabicyclo[3.2.1]octan-3-yl)methyl)-N-(5-fluoro-4-(4-fluoro-1-isopropyl-2-methyl-1H-benzo[d]imidazol-6-yl)pyridin-2-yl)pyrimidin-2-amine], the values for the IC50 on CDK6/D3 and on CDK4/D3 were 23.1 nM and 2.6 nM, respectively.
`Cc1nc2c(F)cc(-c3cc(Nc4ncc(CN5C[C@H]6CN(C)C[C@H]6C5)cn4)ncc3F)cc2n1C(C)C` [Compound 6-1, N-(5-fluoro-4-(4-fluoro-1-isopropyl-2-methyl-1H-benzo[d]imidazol-6-yl)pyridin-2-yl)-5-(((cis)-5-methylhexahydropyrrolo[3,4-c]pyrrol-2(1H)-yl)methyl)pyrimidin-2-amine]: the IC50 in series [1] was determined as 47 nM. In addition, the IC50 in series [2] was 70 nM. Also, the IC50 in series [3] was 83 nM. Further, in series [4] (IV, 2.5 mg/kg), the exposure AUC(0-t) (as a rule, exposure summed from dosing to a finite time, without extrapolation to infinity) stood at 985 ng·h/mL and the clearance was 40.2 mL/min/kg. For the same compound, in series [4] (IV, 2.5 mg/kg, read-out: Vss), the Vd is 12.5 L/kg. In series [4] (PO, 10 mg/kg), the area under the curve AUC(0-t) turned out to be 1410 ng·h/mL; the Cmax – broadly, the peak of the concentration-time curve – was 300 ng/mL; the Tmax – broadly, the time from dosing to the highest level – was determined as 2 h; the bioavailability turned out to be 39.3%. For the same compound, in series [4] (PO, 200 mg/kg), the AUC(0-t) was determined as 90900 ng·h/mL, the maximum concentration (Cmax) was 5370 ng/mL, the Tmax is 2 h and the bioavailability is 115%.
